# Measurements from article PMC6988309, “Preclinical efficacy for a novel tyrosine kinase inhibitor, ArQule 531 against acute myeloid leukemia” (Journal of Hematology & Oncology, 2020).
# Tests used:
# [1] = target: T1, FLT3-WT (Homo sapiens, UniProt P36888); experiment: Biochemical assay of recombinant kinases, FLT3-WT; settings: recombinant kinase domain, 10 μmol/L ATP
# T1 construct: measured using recombinant protein constructs of kinase domains (Reaction Biology); purchased Reaction Biology
# T1 sequence (P36888 610-943 limits assumed): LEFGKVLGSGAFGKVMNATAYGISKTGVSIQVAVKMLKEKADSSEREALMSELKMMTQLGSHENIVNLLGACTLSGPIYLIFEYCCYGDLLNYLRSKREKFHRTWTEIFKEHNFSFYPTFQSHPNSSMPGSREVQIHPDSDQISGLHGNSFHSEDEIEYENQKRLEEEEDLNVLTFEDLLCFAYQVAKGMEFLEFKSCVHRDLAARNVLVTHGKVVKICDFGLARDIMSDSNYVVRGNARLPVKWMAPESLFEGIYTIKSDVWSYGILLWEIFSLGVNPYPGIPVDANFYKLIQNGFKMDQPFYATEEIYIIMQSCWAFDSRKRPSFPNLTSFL
# Protocol: Biochemical inhibition of FLT3-WT and FLT3-ITD fusion was measured using recombinant protein constructs of kinase domains (Reaction Biology).
# [2] = system: U937; experiment: MTS proliferation assay 72 h, U937; type: cell-based, human
# Protocol: A total of 5000–30,000 cells from the lines above were treated in a 96-well plate for 72 h. CellTiter 96 Aqueous MTS reagent (Promega, Madison, WI) was added to cells followed by a 3-h incubation at 37 °C, 5% CO2. The absorbance was measured at 490 nm using DTX 880 plate reader and the half maximal inhibitory concentration (IC50) was calculated using GraphPad Prism 7 (GraphPad Software, La Jolla, CA) and SAS/STAT software (SAS v9.4 for Windows, SAS Institute, Inc., Cary, NC). For the MOLM-13 resistant and the Ba/F3-FLT3-ITD/TKD cell lines, cells were treated for 72 h and cell viability was evaluated using MTT assay (Roche Diagnostics. Mannheim. Germany) according to the manufacturer’s instructions.
# [3] = system: Ba/F3 FLT3-D835H; experiment: MTT proliferation assay 72 h, Ba/F3 FLT3-D835H; type: cell-based, murine; settings: Mus musculus, BaF3, read-out: Estimated absolute µM IC50 and 95% CI
# Protocol: For the MOLM-13 resistant and the Ba/F3-FLT3-ITD/TKD cell lines, cells were treated for 72 h and cell viability was evaluated using MTT assay (Roche Diagnostics. Mannheim. Germany) according to the manufacturer’s instructions.
# [4] = system: primary AML patient blasts; experiment: MTS proliferation assay, primary AML blasts co-cultured with HS5-GFP stroma cells, 96 h; type: cell-based, human; settings: HS5-GFP co-culture
# Source text: For in vitro cytotoxicity experiments (Fig. 1b–d), repeated measures models were used to account for correlations among observations from the same experiment. The percentage of live cells was compared at each concentration with DMSO. […] Mixed effects models were used in experiments described in Additional file 1: Table S4 and Fig. 2c to account for correlations within a single patient. Outcome data were first log-transformed to stabilize variances and reduce skewness. For survival experiments (Figs. 5 and 6a), Kaplan-Meier curves were produced and group differences for Fig. 5 and assessed by the log-rank test and for Fig. 6a, p values have been adjusted for multiple comparisons using Holm’s procedure. p values from experiments with multiple endpoints were adjusted for multiple comparisons using either Holm’s procedure or Dunnett’s test (all comparisons against vehicle/DMSO).
# MTS proliferation assay using a human stroma co-culture assay. […] FLT3 wild-type (WT) samples (red) and FLT3-ITD (black). Colony-Forming Unit-Granulocyte and Macrophage (CFU-GM) assay. […] Number of colonies were counted after 14 days (c)
# [5] = system: MOLM-13 disseminated AML xenograft; experiment: MOLM-13 disseminated xenograft, single agent study (NSG mice); type: in vivo
# Protocol: (§1) All experiments were conducted after approval of The Ohio State University Institutional Animal Care and Use Committee. Mice were randomized and enrolled for daily oral gavage (Q.D.P.O) treatment of vehicle or 50 mg/kg ARQ 531. Mice were treated until reaching early removal criteria (ERC) defined as 20% weight loss, lethargy, hind limb paralysis, moribund, anorexia, dehydration, hunched posture, severe diarrhea, breathing difficulties, or any abnormal neurological symptoms.
# A total of 10,000 luciferase expressing MOLM-13 cells were engrafted via tail vein injection in NSG mice (The Jackson Laboratory, Bar Harbor, ME) for the single agent ARQ 531 study or NCG mice (Charles River Laboratories, Wilmington, MA) for the ARQ 531 + venetoclax (ARQ + Ven) combination study. For the first single agent ARQ 531 study, mice were treated 7 days post-engraftment. Due to the aggressiveness of the MOLM-13 model, mice were treated 4 days post-engraftment in the ARQ + Ven combination study. In both studies, mice were treated daily via oral gavage with vehicle (10% absolute alcohol, 10% Cremophor-EL, 80% saline) or 50 mg/kg ARQ 531, and 75 mg/kg venetoclax ± 50 mg/kg ARQ 531 for the combination study. Weekly in vivo imaging was performed using In Vivo Imaging System (IVIS) imager (PerkinElmer, Waltham, MA).
# Kaplan–Meier survival curve in the MOLM-13 disseminated AML xenograft model. […]
# [6] = system: MOLM-13 disseminated AML xenograft; experiment: MOLM-13 disseminated xenograft, ARQ + Ven combination study (NCG mice); type: in vivo; settings: 50 mg/kg ARQ 531 and/or 75 mg/kg venetoclax Q.D.P.O from 4 days post-engraftment until ERC; vehicle 25 days
# Protocol: All experiments were conducted after approval of The Ohio State University Institutional Animal Care and Use Committee. Mice were randomized and enrolled for daily oral gavage (Q.D.P.O) treatment of vehicle or 50 mg/kg ARQ 531. Mice were treated until reaching early removal criteria (ERC) defined as 20% weight loss, lethargy, hind limb paralysis, moribund, anorexia, dehydration, hunched posture, severe diarrhea, breathing difficulties, or any abnormal neurological symptoms. […]
# Fig. 7 BCL2 inhibition improves ARQ 531 in vivo activity. a Kaplan–Meier survival curve in the MOLM-13 xenograft after mice were treated with vehicle (N = 9) or 50 mg/kg ARQ 531 Q.D.P.O (N = 9) or 75 mg/kg venetoclax Q.D.P.O (N = 10) or 50 mg/kg ARQ 531 and 75 mg/kg venetoclax combination Q.D.P.O (N = 10) at 4 days post engraftment until ERC. b Noninvasive serial whole body bioluminescence imaging of ventral view to monitor leukemia progression and regression post treatment. Mice were injected with 150 mg/kg Firefly D-Luciferin for evaluation of tumor burden as determined by whole body bioluminescence imaging using IVIS imager
# [7] = system: MOLM-13, MV4-11, and OCI-AML3 cell lines; experiment: Annexin/PI apoptosis assay 72 h; type: cell-based, human; settings: increasing concentrations of ARQ 531 or 50 nM gilteritinib
# Protocol: Cells were treated for 72 h then stained for 20 min in 1X Annexin Binding buffer (BD Biosciences, Franklin Lakes, NJ) containing Annexin V-FITC and Propidium Iodine (Leinco Technologies, Fenton, MO). Live and apoptotic cells were measured using FC 500 flow cytometer and analyzed on Kaluza software (Beckman Coulter, Pasadena, CA).
# [8] = system: phosphorylated SFK, FLT3, STAT5, and ERK; experiment: Immunoblot of phosphorylated SFK, FLT3, STAT5 and ERK in FLT3-ITD cell lines; type: cell-based, human; settings: MOLM-13 and MV4-11, serum starved, 10-min treatment
# Protocol: (§2) Cell lines were serum starved overnight followed by a 10-min treatment. Cells were washed in ice-cold PBS then lysed in 1X Cell Lysis Buffer (CST) supplemented with proteinase and phosphatase inhibitors cocktail (Roche). Pierce BCA Protein Assay was used to quantify the protein lysates (Thermo Fisher Scientific, Waltham, MA). For Immunoblotting, 15–25 μg of protein lysate was prepared in 2X or 4X Laemmeli’s sample buffer (Bio-Rad Laboratories, Hercules, CA) and heated for 5 min at 100 °C. Samples were separated on 8% sodium dodecyl sulfate polyacrylamide gel and transferred onto nitrocellulose membrane (Bio-Rad Laboratories, Hercules, CA). The membranes were blocked for 1 h in Blocker BLOTTO Blocking Buffer (Thermo Fisher Scientific, Waltham, MA) or 5% non-fat milk followed by overnight incubation at 4 °C with primary antibody followed by HRP-conjugated secondary antibodies and visualized with chemiluminescent Pierce ECL Substrate (Thermo Fisher Scientific, Waltham, MA) on X-ray films.
# (§3) Immunoblot analysis for MOLM-13, MV4-11, and OCI-AML3 AML cell lines (representative of 2-3 independent blots). […] Twenty to 25 μg of total protein lysate was loaded per lane.
# [9] = system: phosphorylation of Tyrosine 416 of the SFK; experiment: Immunoblot of phospho-SFK Tyr416; type: cell-based, human; settings: MOLM-13, MV4-11, and OCI-AML3, 10-min treatment
# Protocol: as §2, §3
# [10] = Toxicity in xenograft mouse studies; type: in vivo; settings: xenograft mice, 50 mg/kg daily oral
# Protocol: as §1
smiles,measurement,setting,value
O=C(c1ccc(Oc2ccccc2)cc1Cl)c1c[nH]c2ncnc(N[C@@H]3CC[C@@H](CO)OC3)c12 [ARQ 531],IC50,[1],82 nM
same,resistant to concentrations up to,[2],> 10 µM
same,Estimated absolute µM IC50 (95% CI),[2]; 4-parameter logistic model,Unable to calculate IC50
same,IC50,[3],1.74 µM
same,Estimated Ratio of proliferation versus vehicle (DMSO),[4]; 0.005 µM,0.91
same,Estimated Ratio of proliferation versus vehicle (DMSO),[4]; 0.01 µM,0.95
same,Estimated Ratio of proliferation versus vehicle (DMSO),[4]; 0.05 µM,0.92
same,Estimated Ratio of proliferation versus vehicle (DMSO),[4]; 0.1 µM,0.9
same,Estimated Ratio of proliferation versus vehicle (DMSO),[4]; 0.5 µM,0.69
same,Estimated Ratio of proliferation versus vehicle (DMSO),[4]; 1 µM,0.58
same,Estimated Ratio of proliferation versus vehicle (DMSO),[4]; 5 µM,0.34
same,Estimated Ratio of proliferation versus vehicle (DMSO),[4]; 10 µM,0.28
same,Estimated Ratio of proliferation versus vehicle (DMSO),[4]; 50 µM,0.09
same,median survival,"[5]; 50 mg/kg Q.D.P.O from 7 days post-engraftment until ERC, vehicle 21 days",23 days
same,median survival advantage vs vehicle,"[5]; 50 mg/kg Q.D.P.O, log-rank p value = 0.002",2 days
same,survival,[6],27 days
same,apoptosis / cytotoxicity (Annexin/PI),[7],induced cell apoptosis
same,"concentration inhibiting phosphorylated levels of SFK, FLT3, STAT5, and ERK",[8],≤ 500 nM
same,inhibition of phosphorylation of Tyrosine 416 of the SFK,[9],potently inhibited
same,toxicity,[10],lack of toxicity
